Test results taken from ChEMBL document CHEMBL6096676, “TarIKGC: A Target Identification Tool Using Semantics-Enhanced Knowledge Graph Completion with Application to CDK2 Inhibitor Discovery” (J Med Chem, 2025).

What was measured:
[1] = tested on: MKN-28; experiment: Antiproliferative activity against human MKN-28 cells measured after 48 to 72 hrs by CCK-8 method
[2] = tested on: PC-9; experiment: Antiproliferative activity against human PC-9 cells measured after 48 to 72 hrs by CCK-8 method
[3] = Antiproliferative activity against HEK293T cells measured after 48 to 72 hrs by CCK-8 method; settings: human
[4] = tested on: AGS; experiment: Antiproliferative activity against human AGS cells measured after 48 to 72 hrs by CCK-8 method
[5] = tested on: SW-620; experiment: Antiproliferative activity against human SW620 cells measured after 48 to 72 hrs by CCK-8 method
[6] = Antiproliferative activity against human THLE-2 cells measured after 48 to 72 hrs by CCK-8 method
[7] = tested on: Huh-7; experiment: Antiproliferative activity against human Huh-7 cells measured after 48 to 72 hrs by CCK-8 method

IC50 [1]: 8.73 µM
IC50 [2]: 7.28 µM
IC50 [4]: 6.84 µM
IC50 [5]: 2.07 µM
IC50 [7]: 5.78 µM
SMILES: COc1ccc(CNc2nc(N(CCO)CCO)nc3c2ncn3C(C)C)cc1
IC50 [3]: 11.5 µM
IC50 [6]: 15 µM
